The values that follow are results of earlier work, collected in patent publication US11717525B2, “Transdermal and/or topical delivery system comprising clobazam” (Alpha to Omega Pharmaceutical Consultants, Inc., priority 2015, dated 2023).

For series [1] the following is noted: 25° C., practically insoluble.
The conditions of series [2]: oral administration.
For series [3] the following is noted: lipophilic in nature.

`CN1C(=O)CC(=O)N(c2ccccc2)c2cc(Cl)ccc21` [Clobazam]: the solubility in water in series [1] was 70 microgram/ml (μg/ml). For the same compound, in series [2], the “absorbed when taken orally” value is on record as 87%. Further, the “Log P” value in series [3] is given as “around 2.1”.
